US8173771B2, “Humanin receptor or humanin-like polypeptide receptor” (Keio Univeristy, priority 2005, dated 2012)
Peptide text beside a SMILES is read from it.

Target: T1, HN receptor (HNR; CNTF-R/WSX-1/gp130) on F11 cells (Mus musculus, UniProt O70394+O88507)
T1 construct: endogenous in cells; host or cells: F11 neurohybrid cells
T1 sequence (O70394 25-623): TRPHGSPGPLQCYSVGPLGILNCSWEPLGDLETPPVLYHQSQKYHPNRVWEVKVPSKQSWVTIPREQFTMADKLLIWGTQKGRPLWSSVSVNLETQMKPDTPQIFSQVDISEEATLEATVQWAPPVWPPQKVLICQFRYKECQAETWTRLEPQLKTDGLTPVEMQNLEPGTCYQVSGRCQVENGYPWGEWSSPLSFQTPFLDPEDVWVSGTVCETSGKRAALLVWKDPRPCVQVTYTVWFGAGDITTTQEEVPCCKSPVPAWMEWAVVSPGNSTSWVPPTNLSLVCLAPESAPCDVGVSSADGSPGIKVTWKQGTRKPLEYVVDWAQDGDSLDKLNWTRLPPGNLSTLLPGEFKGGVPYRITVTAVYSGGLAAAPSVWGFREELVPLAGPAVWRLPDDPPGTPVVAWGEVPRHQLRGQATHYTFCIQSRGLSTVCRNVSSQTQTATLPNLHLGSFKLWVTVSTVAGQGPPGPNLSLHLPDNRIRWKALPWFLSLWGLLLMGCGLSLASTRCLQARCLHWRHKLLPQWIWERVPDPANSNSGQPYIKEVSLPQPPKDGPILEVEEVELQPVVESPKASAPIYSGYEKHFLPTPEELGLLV
T1 sequence (O88507 23-342): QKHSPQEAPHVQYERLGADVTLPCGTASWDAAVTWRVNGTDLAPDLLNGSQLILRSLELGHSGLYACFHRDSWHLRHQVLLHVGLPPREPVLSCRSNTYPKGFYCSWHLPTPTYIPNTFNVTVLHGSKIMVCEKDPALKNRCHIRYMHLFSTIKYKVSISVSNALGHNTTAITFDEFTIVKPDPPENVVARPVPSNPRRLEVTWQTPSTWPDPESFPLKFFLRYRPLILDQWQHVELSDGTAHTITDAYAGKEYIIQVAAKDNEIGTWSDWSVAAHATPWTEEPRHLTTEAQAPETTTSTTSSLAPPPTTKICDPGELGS
T1 sequence (Q00560 23-917 partner): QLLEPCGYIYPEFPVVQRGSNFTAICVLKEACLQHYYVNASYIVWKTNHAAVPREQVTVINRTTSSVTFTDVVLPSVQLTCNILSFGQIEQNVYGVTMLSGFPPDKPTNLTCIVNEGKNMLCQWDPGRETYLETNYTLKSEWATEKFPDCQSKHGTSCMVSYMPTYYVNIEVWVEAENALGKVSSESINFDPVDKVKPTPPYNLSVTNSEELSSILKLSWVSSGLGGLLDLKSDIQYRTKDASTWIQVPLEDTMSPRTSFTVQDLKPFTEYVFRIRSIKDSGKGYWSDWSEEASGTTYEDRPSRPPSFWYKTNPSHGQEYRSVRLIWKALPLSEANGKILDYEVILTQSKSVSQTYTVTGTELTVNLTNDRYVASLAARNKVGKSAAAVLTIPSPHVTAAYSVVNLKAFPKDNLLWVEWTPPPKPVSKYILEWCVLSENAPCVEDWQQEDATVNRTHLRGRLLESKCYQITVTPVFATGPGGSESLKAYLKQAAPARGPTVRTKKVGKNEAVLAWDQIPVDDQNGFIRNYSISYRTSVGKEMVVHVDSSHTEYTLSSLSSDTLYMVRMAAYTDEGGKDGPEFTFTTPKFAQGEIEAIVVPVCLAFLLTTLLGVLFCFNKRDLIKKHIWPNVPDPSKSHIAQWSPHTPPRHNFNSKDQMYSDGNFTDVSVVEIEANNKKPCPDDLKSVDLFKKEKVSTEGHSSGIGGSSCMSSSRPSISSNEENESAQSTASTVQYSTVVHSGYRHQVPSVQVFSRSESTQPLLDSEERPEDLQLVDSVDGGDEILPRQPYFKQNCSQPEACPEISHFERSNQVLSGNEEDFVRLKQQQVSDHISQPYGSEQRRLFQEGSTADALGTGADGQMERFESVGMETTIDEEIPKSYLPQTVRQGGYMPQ
Test: Immunofluorescence-based binding assay (2): biotin-HN / biotin-HNG binding to F11 cells
Protocol: A) F11 cells were seeded on 96-well plates coated with poly-L-lysine (7×10^3 cells/well). An indicated amount of biotin-HN or biotin-HNG was added to the cells with or without 10 μM of unlabelled HNG or HNA, followed by a binding assay based on immunofluorescence reaction (2) (left panels). On the other hand, F11 cells were transfected with 0.5 μg of pcDNA3.1/GS-human CNTF-R, pEF1/MycHis-human WSX-1, and 1.0 μg of pCAG-human gp130. At 24 hrs after the transfection, the cells were re-seeded on 96-well plates coated with poly-L-lysine (7×10^3 cells/well). After 36 hrs the re-seeding, an indicated amount of biotin-HN or biotin-HNG was added to the cells with or without 10 μM of unlabeled HNG or HNA, followed by a binding assay based on immunofluorescence reaction (2) (right panels).
B) F11 cells were transfected with 0.5 μg of pRNA-U1.6/Shuttle vector, pRNA-U6.1/Shuttle-WSX-1 siRNA, pRNA-U6.1/Shuttle-CNTF-R siRNA, both pRNA-U6.1/Shuttle-WSX-1 siRNA and pRNA-U6.1/Shuttle-CNTF-R siRNA (0.5 μg each), pRNA-U6.1/Shuttle-FPR2 siRNA or pRNA-U6.1/Shuttle-LIFR siRNA. The total amount of vectors was adjusted to be 1.0 μg by including a backbone vector. At 24 hrs after the transfection, an indicated amount of biotin-HNG was added with or without unlabeled HNG, followed by a binding assay based on immunofluorescence reaction (2) at 72 hrs after the transfection.
E) F11 cells on 6-well plate (7×10^4 cells/well) were transfected with 1.0 μg of pRNA-U6.1/Shuttle vector, pRNA-U6.1/Shuttle-Bax siRNA, or both pRNA-U6.1/Shuttle-WSX-1 siRNA and pRNA-U6.1/Shuttle-CNTF-R siRNA (0.5 μg each). At 72 hrs after the transfection, the cells were added with an indicated amount of biotin-HN with or without unlabeled HN or HNA (100 μM) and subjected to an HN-binding assay based on immunofluorescence.
F11 cells (7×10^4/well in 6-well plates) were replated into 96-well plates (7×10^3 cells/well) at 24 hrs after transfection with indicated amounts of the plasmids encoding mycHis-WSX or V5-CNTF-R, and with PCAG-human gp130 if required. At 36 hrs after transfection, the cells were added with biotin-labeled HN or HNG of indicated concentrations in the presence or the absence of HNG (S14G-HN) or HNA (C8A-HN) of indicated concentrations (Hashimoto et al., 2001 a). After 6 hrs incubation, they were fixed with 4% paraformaldehyde in PBS for 30 min. After washing with PBS, cells were stained with FITC-conjugated avidin (Molecularprobe, Eugene, Oreg., USA). Immunofluorescence intensity was measured (excitation=485 nm, emission=535 nm) with a spectrofluorometer (Wallac1420 ARVOsx Multi Label Counter). Immunohistochemical analysis was done with a laser-scanning, confocal microscope LSM (Carl Zeiss, Germany).

For `CC[C@H](C)[C@H](NC(=O)[C@H](CCC(=O)O)NC(=O)CNC(=O)[C@@H](NC(=O)[C@H](CC(C)C)NC(=O)[C@H](CC(C)C)NC(=O)[C@H](CC(C)C)NC(=O)[C@H](CC(C)C)NC(=O)[C@H](CS)NC(=O)[C@H](CO)NC(=O)[C@H](Cc1ccccc1)NC(=O)CNC(=O)[C@H](CCCNC(=N)N)NC(=O)[C@@H]1CCCN1C(=O)[C@H](C)NC(=O)[C@@H](N)CCSC)[C@@H](C)O)C(=O)N[C@@H](CC(=O)O)C(=O)N[C@@H](CC(C)C)C(=O)N1CCC[C@H]1C(=O)N[C@H](C(=O)N[C@@H](CCCCN)C(=O)N[C@@H](CCCNC(=N)N)C(=O)N[C@@H](CCCNC(=N)N)C(=O)N[C@@H](C)C(=O)O)C(C)C` [HNG, S14 G-Humanin] (H-MAPRGFSCLLLLTGEIDLPVKRRA-OH; N-terminus and C-terminus assumed), which “concentration of saturation of binding” value (biotin-HNG, concentration-dependent binding) is on record?
The value was 10 nM.

And the “binding to F11 cells” value (expression of FPR2 or LIFR decreased by siRNA)?
The value was “not be affected”.

And the “inhibition of binding by over-addition of unlabeled peptide” value (specificity of binding)?
Its value is “almost completely inhibit”.
